Activity calls are given as the source filed them. The calls are words filed in the database; no cut-off is given here.
Legend:
[1] = target: T1, Gamma-aminobutyric acid receptor subunit alpha-1/beta-3/gamma-2 (Mus musculus, UniProt P22723+P62812+P63080); test: Negative allosteric modulation of recombinant mouse alpha1beta3gamma2 GABAA receptor expressed in GFP tagged HEK293 cells at steady state current by whole-cell voltage clamp electrophysiological analysis; format: cell-based
[2] = target: T2, Gamma-aminobutyric acid receptor subunit alpha-1/beta-3/gamma-2 (Mus musculus) (UniProt P22723+P62812+P63080); test: Negative allosteric modulation of recombinant mouse alpha1beta3gamma2 GABAA receptor expressed in GFP tagged HEK293 cells at 100 uM by whole-cell voltage clamp electrophysiological analysis relative control; format: cell-based; conditions: filed as negative allosteric modulator
[3] = target: T2, Gamma-aminobutyric acid receptor subunit alpha-1/beta-3/gamma-2 (Mus musculus); test: Negative allosteric modulation of recombinant mouse alpha1beta3gamma2 GABAA receptor expressed in GFP tagged HEK293 cells at 100 uM by whole-cell voltage clamp electrophysiological analysis; format: cell-based; conditions: filed as negative allosteric modulator
[4] = target: T2, Gamma-aminobutyric acid receptor subunit alpha-1/beta-3/gamma-2 (Mus musculus); test: Positive allosteric modulation of recombinant mouse alpha1beta3gamma2 GABAA receptor expressed in GFP tagged HEK293 cells assessed as maximum GABA current at 100 uM by whole-cell voltage clamp electrophysiological analysis; format: cell-based; conditions: filed as positive allosteric modulator
[5] = Solubility of the compound at 100 uM; format: physicochemical
[6] = target: T1, Gamma-aminobutyric acid receptor subunit alpha-1/beta-3/gamma-2; test: Negative allosteric modulation of recombinant mouse alpha1beta3gamma2 GABAA receptor expressed in GFP tagged HEK293 cells at peak current by whole-cell voltage clamp electrophysiological analysis; format: cell-based
[7] = tested on: HEK293; test: Positive allosteric modulation of recombinant mouse alpha1 Q241L mutant/beta3/gamma2 GABAA receptor expressed in GFP tagged HEK293 cells by whole-cell voltage clamp electrophysiological analysis; format: cell-based
[8] = tested on: HEK293; test: Negative allosteric modulation of recombinant mouse alpha1 Q241L mutant/beta3/gamma2 GABAA receptor expressed in GFP tagged HEK293 cells assessed as inhibition of steady-state level at 100 uM by whole-cell voltage clamp electrophysiological analysis; format: cell-based
[9] = target: T2, Gamma-aminobutyric acid receptor subunit alpha-1/beta-3/gamma-2 (Mus musculus); test: Positive allosteric modulation of recombinant wild type mouse alpha1beta3gamma2 GABAA receptor expressed in GFP tagged HEK293 cells at 100 uM by whole-cell voltage clamp electrophysiological analysis; format: cell-based
[10] = tested on: HEK293; test: Negative allosteric modulation of recombinant mouse alpha1 Q241L mutant/beta3/gamma2 GABAA receptor expressed in GFP tagged HEK293 cells assessed as inhibition of peak current at 100 uM by whole-cell voltage clamp electrophysiological analysis; format: cell-based
[11] = tested on: HEK293; test: Positive allosteric modulation of recombinant mouse alpha1 Q241L mutant/beta3/gamma2 GABAA receptor expressed in GFP tagged HEK293 cells at 100 uM by whole-cell voltage clamp electrophysiological analysis; format: cell-based
[12] = target: T3, GABA-A receptor; anion channel (Rattus norvegicus) (UniProt O09028+P15431+P18506+P18508+P19969+P20236+P23574+P23576+P28471+P28473+P30191+P62813+P63079+P63138+Q91ZM7+Q9ES14); test: Positive allosteric modulation of GABAA receptor in Sprague-Dawley rat Hippocampal neuron assessed as decrease in spontaneous IPSC frequency at 10 uM by whole-cell voltage-clamp electrophysiological analysis; format: cell-based; conditions: filed as positive allosteric modulator
[13] = target: T3, GABA-A receptor; anion channel (Rattus norvegicus); test: Positive allosteric modulation of GABAA receptor in Sprague-Dawley rat Hippocampal neuron assessed as potentiation of tonic holding current at 30 uM by whole-cell voltage-clamp electrophysiological analysis; format: cell-based; conditions: filed as positive allosteric modulator
[14] = target: T3, GABA-A receptor; anion channel (Rattus norvegicus); test: Positive allosteric modulation of GABAA receptor in Sprague-Dawley rat Hippocampal neuron assessed as prolongation of spontaneous IPSC decay time at 10 uM by whole-cell voltage-clamp electrophysiological analysis; format: cell-based; conditions: filed as positive allosteric modulator
[15] = target: T3, GABA-A receptor; anion channel (Rattus norvegicus); test: Positive allosteric modulation of GABAA receptor in Sprague-Dawley rat Hippocampal neuron assessed as reduction in spontaneous IPSC amplitude at 10 uM by whole-cell voltage-clamp electrophysiological analysis; format: cell-based; conditions: filed as positive allosteric modulator
[16] = target: T2, Gamma-aminobutyric acid receptor subunit alpha-1/beta-3/gamma-2 (Mus musculus); test: Positive allosteric modulation of recombinant mouse alpha1beta3gamma2 GABAA receptor expressed in GFP tagged HEK293 cells assessed as maximum GABA current by measuring maximum activation at 100 uM by whole-cell voltage clamp electrophysiological analysis relative to control; format: cell-based; conditions: filed as positive allosteric modulator

T1 sequence (P22723 whole entry): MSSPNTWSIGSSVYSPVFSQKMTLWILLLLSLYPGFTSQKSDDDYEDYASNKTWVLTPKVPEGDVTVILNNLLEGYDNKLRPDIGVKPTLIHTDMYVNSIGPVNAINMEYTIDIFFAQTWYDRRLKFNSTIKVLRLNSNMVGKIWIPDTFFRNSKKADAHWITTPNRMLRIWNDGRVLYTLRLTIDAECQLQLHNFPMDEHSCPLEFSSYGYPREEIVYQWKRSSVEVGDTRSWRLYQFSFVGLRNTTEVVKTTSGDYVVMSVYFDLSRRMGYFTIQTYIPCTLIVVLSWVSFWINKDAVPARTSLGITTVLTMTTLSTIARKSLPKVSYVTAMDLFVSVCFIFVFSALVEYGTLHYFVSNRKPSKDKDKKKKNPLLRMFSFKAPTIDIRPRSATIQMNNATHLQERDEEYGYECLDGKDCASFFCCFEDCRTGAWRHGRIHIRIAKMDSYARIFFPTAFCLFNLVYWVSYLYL
T1 sequence (P62812 whole entry): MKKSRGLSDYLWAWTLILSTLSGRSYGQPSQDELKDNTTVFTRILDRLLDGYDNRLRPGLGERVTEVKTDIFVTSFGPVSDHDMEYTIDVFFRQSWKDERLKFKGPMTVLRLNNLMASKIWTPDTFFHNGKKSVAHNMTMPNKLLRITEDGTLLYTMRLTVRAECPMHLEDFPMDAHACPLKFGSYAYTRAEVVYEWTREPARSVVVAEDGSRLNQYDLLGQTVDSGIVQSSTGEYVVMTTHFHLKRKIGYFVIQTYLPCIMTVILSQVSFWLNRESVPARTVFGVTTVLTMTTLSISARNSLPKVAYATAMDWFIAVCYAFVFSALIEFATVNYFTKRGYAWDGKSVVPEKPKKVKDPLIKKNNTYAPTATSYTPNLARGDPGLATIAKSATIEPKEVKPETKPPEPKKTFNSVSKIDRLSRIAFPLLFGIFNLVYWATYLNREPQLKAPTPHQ
T1 sequence (P63080 whole entry): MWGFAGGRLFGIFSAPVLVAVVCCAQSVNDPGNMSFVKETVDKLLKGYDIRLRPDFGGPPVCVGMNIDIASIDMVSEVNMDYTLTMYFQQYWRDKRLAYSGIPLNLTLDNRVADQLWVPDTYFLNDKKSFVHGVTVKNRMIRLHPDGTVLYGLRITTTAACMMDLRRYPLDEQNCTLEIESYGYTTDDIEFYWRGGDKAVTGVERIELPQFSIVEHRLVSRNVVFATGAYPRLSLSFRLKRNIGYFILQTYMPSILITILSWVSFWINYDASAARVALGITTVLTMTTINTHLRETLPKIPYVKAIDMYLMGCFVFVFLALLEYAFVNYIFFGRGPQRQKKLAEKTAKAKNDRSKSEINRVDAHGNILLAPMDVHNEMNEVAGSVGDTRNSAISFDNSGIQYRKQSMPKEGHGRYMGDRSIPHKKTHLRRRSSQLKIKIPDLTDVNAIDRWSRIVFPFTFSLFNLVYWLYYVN

C[C@]12CC[C@@H](c3ccccc3)C[C@H]1CC[C@@H]2O (relative stereo)
IC50 [1]: 21 µM | Activity [2]: 100% | Activity [3]: Active | Activity [4]: Active | solubility [5]: soluble | IC50 [6]: 27 µM

O[C@H]1CC[C@H](c2ccc3c(c2)CCC3)CC1
IC50 [1]: 14 µM | Activity [3]: Active | Activity [4]: Active | solubility [5]: soluble | IC50 [6]: 59 µM

CC(=O)c1cccc(C2=C[C@H]3CC[C@H](O)[C@@]3(C)CC2)c1
Activity [7]: inactive

O[C@H]1CC[C@@H](c2ccc3c(c2)CCC3)CC1
IC50 [1]: 18 µM | Activity [3]: Active | Activity [4]: Active | solubility [5]: soluble | IC50 [6]: 55 µM

C[C@@]12CCC(CCOS(=O)(=O)O)C[C@H]1CCc1ccccc12 (mixture of isomers)
IC50 [1]: 12 µM | Activity [8]: inactive | Activity [2]: 100% | Activity [3]: Active | Activity [9]: inactive | Activity [10]: inactive | solubility [5]: soluble | IC50 [6]: 15 µM | Activity [11]: inactive

CC(=O)c1cccc(C2=CC[C@@]3(C)[C@H](CC[C@@H]3O)C2)c1
Activity [12]: Active | Activity [7]: inactive | Activity [13]: Active | Activity [14]: Active | Activity [15]: Active

C[C@@]12CC/C(=C/CO)C[C@H]1CCc1ccccc12
IC50 [1]: 23 µM | Activity [3]: Active | solubility [5]: soluble | IC50 [6]: 114 µM

C[C@]12CC[C@H](c3ccccc3)C[C@H]1CC[C@@H]2O (mixture of isomers)
IC50 [1]: 20 µM | Activity [2]: 100% | Activity [3]: Active | Emax [16]: 43% | Activity [4]: Active | solubility [5]: soluble | IC50 [6]: 37 µM

O=S(=O)(O)O[C@H]1CC[C@H](c2ccc3c(c2)CCC3)CC1
IC50 [1]: 73 µM | Activity [3]: Active | solubility [5]: soluble | IC50 [6]: 148 µM

C[C@@]12CCC(CCO)C[C@H]1CCc1ccccc12 (mixture of isomers)
IC50 [1]: 14 µM | Activity [8]: inactive | Activity [2]: 100% | Activity [3]: Active | Activity [9]: inactive | Activity ([10]; filed as negative allosteric modulator): Active | solubility [5]: soluble | IC50 [6]: 29 µM | Activity [11]: inactive

C[C@]12CC[C@@H](c3ccccc3)C[C@H]1CC[C@@H]2OS(=O)(=O)O (mixture of isomers)
IC50 [1]: 42 µM | Activity [3]: Active | Activity [4]: Active | solubility [5]: soluble | IC50 [6]: 76 µM

C[C@]12CC[C@H](OS(=O)(=O)O)CC1=CCc1cc(Br)ccc12
IC50 [1]: 10 µM | Activity [2]: 100% | Activity [3]: Active | Activity [4]: Active | solubility [5]: soluble | IC50 [6]: 10 µM

O=S(=O)(O)O[C@H]1CC[C@@H](c2ccc3c(c2)CCC3)CC1
IC50 [1]: 53 µM | Activity [3]: Active | Activity [4]: Active | solubility [5]: soluble | IC50 [6]: 190 µM

CC(=O)[C@H]1CC[C@H]2[C@@H]3CC=C4C[C@@H](OS(=O)(=O)O)CC[C@]4(C)[C@H]3CC[C@]12C
IC50 [1]: 3.2 µM | IC50 [6]: 292 µM

C[C@]12CC[C@H](c3ccccc3)C[C@H]1CC[C@@H]2OS(=O)(=O)O (mixture of isomers)
IC50 [1]: 54 µM | Activity [3]: Active | solubility [5]: soluble | IC50 [6]: 128 µM

Reference: ChEMBL document CHEMBL6153055, “Design, Synthesis, and Pharmacological Evaluation of Nonsteroidal Tricyclic Ligands as Modulators of GABAA Receptors” (J Med Chem, 2025)
